Laboratory results taken from patent EP4640686A1, “DEGRADER FOR DEGRADING BRD PROTEIN AND PHARMACEUTICAL COMPOSITION CONTAINING SAME” (Innocure Therapeutics, Inc., priority 2022, dated 2024).

What was measured:
Format in all cases: cell-based
[1] = tested on: SNU2972; assay: Cancer cell antiproliferative activity / cell viability in SNU2972 cells (72 h treatment); conditions: read-out: BRD4 (IC50)
Method: (§1) The human breast cancer cell line [MDA-MB-231] was cultured in RPMI medium with the addition of 10% fetal bovine serum, penicillin [100U/ml], and streptomycin [[…]]. The synthesized compounds were prepared with a 10 mM or 50 mM raw material solution dissolved in DMSO [dimethyl sulfoxide], and were diluted sequentially and treated. [RPMI2650] and [SNU2972] were cultivated under specific conditions.
(§2) To observe cell growth inhibition, cells were dispensed in a concentration of 5,000 cells/well in a 96-well plate, and samples prepared at various concentrations were treated for 72 hours. The IC50 value (the concentration of the compound achieving 50% cytostaticism) is the average value of the results of three independent measurements.

[2] = tested on: MDA-MB-231; assay: Cancer cell antiproliferative activity / cell viability in MDA-MB-231 cells (72 h treatment); conditions: Homo sapiens, read-out: BRD4 (IC50)
Method: as §1, §2

[3] = molecular target: T1, BRD4 (Homo sapiens, UniProt O60885); assay: BRD4 protein degradation by western blotting in MDA-MB-231 cells (24 h treatment); design: To evaluate the resolution of PROTAC for BRD4 expressed in cells; endogenous in cells; host or cells: MDA-MB-231
[4] = tested on: RPMI2650; assay: Cancer cell antiproliferative activity / cell viability in RPMI2650 cells (72 h treatment); conditions: Homo sapiens, RPMI-2650, RPMI2650, read-out: BRD4 (IC50)
Procedure, shortened: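 RPMI2650 human cells were grown under specific culture conditions and seeded at 5,000 cells/well in 96-well plates. Test compounds, dissolved in DMSO as 10 mM or 50 mM stock solutions and serially diluted, were applied at various concentrations for 72 hours. IC50, the concentration giving 50% cytostasis, was averaged over three independent measurements.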

[5] = molecular target: T2, BRD4-NUT (Homo sapiens, UniProt O60885+Q86Y26); assay: BRD4-NUT protein degradation by western blotting in RPMI2650 cells (24 h treatment); conditions: read-out: BRD4-NUT (DC50), RPMI2650
T2 construct: endogenous in cells; host or cells: RPMI2650
Procedure, shortened: (§3)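 Cells seeded at 5 X 10^5 cells/well and exposed to serially diluted compound for 24 hours. Western blot bands were quantified by densitometry, normalized to β-actin or GAPDH and expressed as % of 0.1% DMSO vehicle. DC50 is the concentration giving 50% loss of protein.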

[6] = molecular target: T1, BRD4; assay: BRD4 protein degradation by western blotting in RPMI2650 cells (24 h treatment); design: To evaluate the resolution of PROTAC for BRD4 expressed in cells; endogenous in cells; host or cells: RPMI2650; conditions: read-out: BR04 (DC50), RPMI2650
Procedure, shortened: as §3

Cc1sc2c(c1C)C(c1ccc(Cl)cc1)=N[C@@H](CC(=O)N1CC(N3CCN(c4ccc5c(=O)n(C6CCC(=O)NC6=O)nc(C)c5c4)CC3)C1)c1nnc(C)n1-2 (stereo partly drawn) [ICT-0000974, 3-(6-(4-(1-(2-((S)-4-(4-chlorophenyl)-2,3,9-trimethyl-6H-thieno[3,2-f][1,2,4]triazolo[4,3-a][1,4]diazepine-6-yl)acetyl)azetidine-3-il)piperazine-1-yl)-4-methyl-1-oxopthalazine-2(1H)-yl)piperidine-2,6-dione]
< 100 nM: IC50 [1] | IC50 [2] | DC50 [3] | IC50 [4] | DC50 [5] | DC50 [6]

Cc1sc2c(c1C)C(c1ccc(Cl)cc1)=N[C@@H](CC(=O)N1CCC(CN3CCN(c4ccc5c(C)nn(C6CCC(=O)NC6=O)c(=O)c5c4)CC3)CC1)c1nnc(C)n1-2 (stereo partly drawn) [ICT-0000982, 3-(7-(4-((1-(2-((S)-4-(4-chlorophenyl)-2,3,9-trimethyl-6H-thieno[3,2-f][1,2,4]triazolo[4,3-a][1,4]diazepine-6-day)acetyl)piperidine-4-il)methyl)piperazine-1-yl)4-methyl-1-oxopthalazine-2(1H)-yl)piperidine-2,6-dione]
< 100 nM: IC50 [1] | IC50 [2] | DC50 [3] | IC50 [4] | DC50 [5] | DC50 [6]
